In the supplement of paper PMC10331698:
± gives the standard deviation of the averaged measurements.

Tests used:
Assay in all cases: level (log10 ratio to DMSO vehicle control); higher = higher biomarker level / cell amount than vehicle control
[1] = compound: C=C(C)C(=O)OCCC(F)(F)C(F)(F)C(F)(F)C(F)(F)C(F)(F)C(F)(F)F [6:2 Fluorotelomer methacrylate]; settings: in DMSO
Method: (§1)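 BioMAP Diversity Plus panel of 12 human primary cell co-culture systems (3C, 4H, LPS, SAg, BT, BF4T, BE3C, CASM3C, HDF3CGF, KF3CT, MyoF, Mphg). Compounds were added 1 h before stimulation and left for 24 h (MyoF 48 h; BT 72 h for soluble read-outs or 6 d for IgG). Biomarkers were read by ELISA, cytotoxicity by SRB, PBMC viability and proliferation by Alamar Blue. Each well value was divided by the mean of 8 DMSO control wells on the same plate and log10 transformed; duplicate blinded samples were tested at 4 concentrations.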

[2] = compound: C=CC(=O)OCC(F)(F)C(F)(F)C(F)(F)COC(=O)C=C [1H,1H,5H,5H-Perfluoro-1,5-pentanediol diacrylate]; settings: 6700 nM; in DMSO
Method: as §1

[3] = compound: COC(=O)C(F)(F)C(F)(F)OC(F)(C(F)(F)F)C(F)(F)OC(F)=C(F)F [Methyl perfluoro(3-(1-ethenyloxypropan-2-yloxy)propanoate)]; settings: in DMSO
Method: as §1

[4] = compound: FC(F)(F)C(F)(F)C(F)(F)C(F)(F)C(F)(F)C(F)(F)C(F)(F)I [1-Iodopentadecafluoroheptane]; settings: in DMSO
Method: as §1

[5] = compound: FC(F)(F)C(F)(F)C(F)(F)C(F)(F)C(F)(F)C(F)(F)CC1CO1 [3-(Perfluorohexyl)-1,2-epoxypropane]; settings: in DMSO
Method: as §1

[6] = compound: FC(F)(F)C(F)(F)C(F)(F)CC1CO1 [1H,1H-Heptafluorobutyl epoxide]; settings: in DMSO
Method: as §1

[7] = compound: FC(F)(F)C(F)(F)C(F)(F)CI [Heptafluorobutyl iodide]; settings: in DMSO
Method: as §1

[8] = compound: FC(F)(F)C(F)(F)CNCC(F)(F)C(F)(F)F [Bis(1H,1H-perfluoropropyl)amine]; settings: in DMSO
Method: as §1

[9] = compound: NC(=O)C(F)(F)C(F)(F)C(F)(F)C(F)(F)C(N)=O [Octafluoroadipamide]; settings: in DMSO
Method: as §1

[10] = compound: NC(=O)C(F)(F)C(F)(F)C(F)(F)C(F)(F)F [Nonafluoropentanamide]; settings: in DMSO
Method: as §1

[11] = compound: NC(=O)C(F)(F)C(F)(F)C(F)(F)C(F)F; settings: in DMSO
Method: as §1

[12] = compound: NS(=O)(=O)C(F)(F)C(F)(F)C(F)(F)C(F)(F)C(F)(F)C(F)(F)F [Perfluorohexanesulfonamide]; settings: in DMSO
Method: as §1

[13] = compound: O=C(O)C(F)(F)C(F)(F)C(F)(F)C(F)(F)C(F)(F)C(F)(F)C(F)(F)C(F)(F)C(F)(F)C(F)F [11-H-Perfluoroundecanoic acid]; settings: in DMSO
Method: as §1

[14] = compound: O=C(O)C=CC(F)(C(F)(F)F)C(F)(F)F [3-(Perfluoroisopropyl)-2-propenoic acid]; settings: in DMSO
Method: as §1

[15] = compound: O=S(=O)(Cl)C(F)(F)C(F)(F)C(F)(F)C(F)(F)C(F)(F)C(F)(F)C(F)(F)C(F)(F)F [Perfluoro-1-octanesulfonyl chloride]; settings: in DMSO
Method: as §1

[16] = compound: O=S(=O)(F)C(F)(F)C(F)(F)C(F)(F)C(F)(F)C(F)(F)C(F)(F)C(F)(F)C(F)(F)F [Perfluorooctanesulfonyl fluoride]; settings: in DMSO
Method: as §1

[17] = compound: O=S(=O)(O)C(F)(F)C(F)(F)C(F)(F)C(F)(F)C(F)(F)C(F)(F)C(F)(F)C(F)(F)C(F)(F)C(F)(F)F [Sodium perfluorodecanesulfonate]; settings: in DMSO
Method: as §1

[18] = compound: O=S(=O)(O)CCC(F)(F)C(F)(F)C(F)(F)C(F)(F)C(F)(F)C(F)(F)F [6:2 Fluorotelomer sulfonic acid]; settings: in DMSO
Method: as §1

[19] = compound: OCC(F)(F)C(F)(F)C(F)(F)CO [Hexafluoroamylene glycol]; settings: in DMSO
Method: as §1

## LPS:IL-1alpha
[1]; 6700 nM
  level (log10): -0.0225 ± 0.079
[1]; 20000 nM
  level (log10): -0.0355 ± 0.022
[1]; 60000 nM
  level (log10): 0.052 ± 0.0042
[2]
  level (log10): -0.078 ± 0.038
[3]; 6700 nM
  level (log10): 0.0045 ± 0.022
[3]; 20000 nM
  level (log10): 0.0515 ± 0.011
[4]; 6700 nM
  level (log10): -0.0655 ± 0.03
[4]; 20000 nM
  level (log10): -0.0495 ± 0.047
[5]; 6700 nM
  level (log10): 0.003 ± 0.018
[5]; 20000 nM
  level (log10): 0.012 ± 0.041
[5]; 60000 nM
  level (log10): 0.028 ± 0.027
[6]; 6700 nM
  level (log10): -0.027 ± 0.023
[6]; 20000 nM
  level (log10): -0.0115 ± 0.023
[6]; 60000 nM
  level (log10): 0.0085 ± 0.022
[7]; 6700 nM
  level (log10): 0.019 ± 0.11
[7]; 20000 nM
  level (log10): 0.0205 ± 0.023
[7]; 60000 nM
  level (log10): 0.0485 ± 0.029
[8]; 6700 nM
  level (log10): 0.0065 ± 0.04
[8]; 20000 nM
  level (log10): -0.017 ± 0.027
[8]; 60000 nM
  level (log10): -0.0125 ± 0.011
[9]; 6700 nM
  level (log10): 0.0005 ± 0.012
[9]; 20000 nM
  level (log10): 0.02 ± 0.017
[9]; 60000 nM
  level (log10): -0.0045 ± 0.00071
[10]; 6700 nM
  level (log10): -0.1 ± 0.011
[10]; 20000 nM
  level (log10): -0.102 ± 0.0099
[10]; 60000 nM
  level (log10): -0.0555 ± 0.0092
[11]; 6700 nM
  level (log10): 0.009 ± 0.011
[11]; 20000 nM
  level (log10): -0.0045 ± 0.015
[11]; 60000 nM
  level (log10): 0.0015 ± 0.06
[12]; 6700 nM
  level (log10): -0.0075 ± 0.053
[12]; 20000 nM
  level (log10): 0.032 ± 0.013
[12]; 60000 nM
  level (log10): 0.0185 ± 0.0078
[13]; 6700 nM
  level (log10): -0.022 ± 0.011
[13]; 20000 nM
  level (log10): 0.004 ± 0.031
[14]; 6700 nM
  level (log10): 0.025 ± 0.034
[14]; 20000 nM
  level (log10): 0.0195 ± 0.05
[14]; 60000 nM
  level (log10): 0.0605 ± 0.023
[15]; 6700 nM
  level (log10): 0.0255 ± 0.018
[15]; 20000 nM
  level (log10): -0.0115 ± 0.039
[15]; 60000 nM
  level (log10): -0.063 ± 0.12
[16]; 6700 nM
  level (log10): 0.0065 ± 0.015
[16]; 20000 nM
  level (log10): 0.024 ± 0.016
[16]; 60000 nM
  level (log10): 0.0105 ± 0.012
[17]; 1500 nM
  level (log10): 0.0145 ± 0.026
[17]; 4400 nM
  level (log10): -0.0335 ± 0.032
[17]; 13000 nM
  level (log10): -0.004 ± 0.041
[17]; 40000 nM
  level (log10): -0.178 ± 0.1
[18]; 6700 nM
  level (log10): 0.007 ± 0.011
[18]; 20000 nM
  level (log10): 0.0225 ± 0.023
[18]; 60000 nM
  level (log10): 0.037 ± 0.05
[19]; 6700 nM
  level (log10): 0.047 ± 0.035
[19]; 20000 nM
  level (log10): -0.0045 ± 0.0035
[19]; 60000 nM
  level (log10): 0.03 ± 0.048

## LPS:M-CSF
[1]; 6700 nM
  level (log10): 0.0215 ± 0.025
[1]; 20000 nM
  level (log10): 0.0305 ± 0.0064
[1]; 60000 nM
  level (log10): 0.0275 ± 0.028
[2]
  level (log10): -0.0655 ± 0.026
[3]; 6700 nM
  level (log10): -0.0065 ± 0.013
[3]; 20000 nM
  level (log10): -0.0105 ± 0.0064
[4]; 6700 nM
  level (log10): 0.023 ± 0.047
[4]; 20000 nM
  level (log10): 0.0155 ± 0.086
[5]; 6700 nM
  level (log10): -0.004 ± 0.0099
[5]; 20000 nM
  level (log10): -0.013 ± 0.0028
[5]; 60000 nM
  level (log10): 0.0055 ± 0.0035
[6]; 6700 nM
  level (log10): -0.019 ± 0.02
[6]; 20000 nM
  level (log10): 0.0005 ± 0.036
[6]; 60000 nM
  level (log10): 0.0255 ± 0.053
[7]; 6700 nM
  level (log10): -0.0225 ± 0.0064
[7]; 20000 nM
  level (log10): 0.007 ± 0.023
[7]; 60000 nM
  level (log10): 0.0065 ± 0.011
[8]; 6700 nM
  level (log10): -0.006 ± 0.083
[8]; 20000 nM
  level (log10): -0.0485 ± 0.12
[8]; 60000 nM
  level (log10): -0.0485 ± 0.087
[9]; 6700 nM
  level (log10): -0.029 ± 0.14
[9]; 20000 nM
  level (log10): 0.0205 ± 0.052
[9]; 60000 nM
  level (log10): 0.023 ± 0.047
[10]; 6700 nM
  level (log10): 0.0065 ± 0.07
[10]; 20000 nM
  level (log10): -0.0075 ± 0.04
[10]; 60000 nM
  level (log10): -0.011 ± 0.0042
[11]; 6700 nM
  level (log10): -0.013 ± 0.028
[11]; 20000 nM
  level (log10): -0.011 ± 0.0014
[11]; 60000 nM
  level (log10): 0.0065 ± 0.023
[12]; 6700 nM
  level (log10): -0.022 ± 0.016
[12]; 20000 nM
  level (log10): -0.0155 ± 0.0021
[12]; 60000 nM
  level (log10): -0.081 ± 0.0057
[13]; 6700 nM
  level (log10): -0.0035 ± 0.018
[13]; 20000 nM
  level (log10): 0.012 ± 0.038
[14]; 6700 nM
  level (log10): -0.011 ± 0.041
[14]; 20000 nM
  level (log10): -0.0065 ± 0.0092
[14]; 60000 nM
  level (log10): 0.0035 ± 0.0035
[15]; 6700 nM
  level (log10): -0.079 ± 0.045
[15]; 20000 nM
  level (log10): -0.0105 ± 0.025
[15]; 60000 nM
  level (log10): 0.116 ± 0.035
[16]; 6700 nM
  level (log10): -0.005 ± 0.021
[16]; 20000 nM
  level (log10): 0.0045 ± 0.0092
[16]; 60000 nM
  level (log10): 0.006 ± 0.017
[17]; 1500 nM
  level (log10): 0.0045 ± 0.021
[17]; 4400 nM
  level (log10): 0.005 ± 0.0057
[17]; 13000 nM
  level (log10): 0.01 ± 0.027
[17]; 40000 nM
  level (log10): -0.006 ± 0.037
[18]; 6700 nM
  level (log10): -0.0045 ± 0.015
[18]; 20000 nM
  level (log10): 0.004 ± 0.03
[18]; 60000 nM
  level (log10): 0.0485 ± 0.039
[19]; 6700 nM
  level (log10): -0.0075 ± 0.016
[19]; 20000 nM
  level (log10): 0.0115 ± 0.0078
[19]; 60000 nM
  level (log10): -0.003 ± 0.035
